Data set [1] relates to p52/RelB nuclear translocation in PC-3M cells. The data set can be described thus: LTα1β2-stimulated p52/RelB nuclear translocation, Western blotting of crude nuclear extracts. The class given is cell-based. The settings on record: Homo sapiens, LTα1β2 4 h. As to the method: Associated with the IKKα-mediated activation of the non-canonical NF-κB pathway is the downstream liberation and the nuclear translocation of p52/RelB-containing NF-κB complexes. The extent of the nuclear translocation of these proteins was also assessed by Western blotting of crude nuclear extracts prepared from PC-3M cells. […] Related to the markers of TNFα-stimulated canonical NF-κB signalling, 6g [SU1349] had no impact on any of TNFα-stimulated IκBα degradation, phosphorylation of p65 (Ser536), or p105 (Ser932) phosphorylation in these cells (Figure 15C).
For examination of potential effects of compound on non-canonical NF-κB signalling, cells were exposed to vehicle (DMSO; 0.03–0.05% (v/v)) or increasing concentrations of compounds (0.01–30 µM) for 1 h prior to treatment with FCS (10% (v/v); for U2OS cells) or LTα1β2 (20 ng/mL; for PC-3M cells) for 4 h. The status of p-p100 (Ser 866/870) in whole-cell extracts prepared from 12-well plates was assessed by Western blotting, as described in McKenzie et al.. […] Thereafter, p52 and RelB status in crude nuclear extracts normalised for protein amounts were assessed by Western blotting.
Each figure/panel of Western blotting data represents one of at least three separate experiments. […] Data were normalised to fold expression/inhibition relative to ‘agonist plus vehicle’ treatment and expressed as mean ± s.e.m. […]
For orientation: A western blot detects proteins with antibodies after separation by electrophoresis.

The nature of a further data set: In vivo murine PK. The settings on record: mouse, plasma, CD1 mice, 10 mg/kg, mean; for half-life: read-out: Terminal t1/2 (converted). Here is the method: Ta b l e S2. in vivo murine PK parameters for 6g [SU1349]. In vivo PK studies were performed by Shanghai ChemPartner Co. Ltd. (Shanghai, 201203 CN) Each route of administration involved three CD1 mice all receiving a single dose, with mean values reported. The IV/IP dosing solution was prepared in 10% DMAC+ 10% Solutol HS15+ 80% (15% of HP-β-CD) in water. BQL: Below quantiϐiable limit of 1 ng/mL for SU1349 in CD1 mouse plasma. All BQL data was excluded from mean value concentration and graphing. Plasma concentrations were determined on an LCMSMS-010 (API4000, triple quadruple) instrument using Positive Ion, ESI MS conditions, with deaxamethasone as an internal standard. Intravenous time points were taken at 5 min, 15 min, 30 min, 1, 2, 4, 8, and 24 hours and intraperitoneal time points were taken at 15 min, 30 min, 1, 2, 4, 6, 8, […]
Administration Dose Mean PK parameters
Clearance Terminal Vss Cmax Tmax F

pIC50: −log10 of the molar value. Where two headings read alike, the source gives them in different places.

The term pIC50 denotes the negative decadic logarithm of the IC50, by convention in mol/L. A lower pIC50 goes with a large IC50. The term Cmax denotes the highest concentration seen after dosing. For orientation: Tmax means the time from dosing to the highest level. In general, bioavailability refers to dose-corrected exposure relative to a reference, in per cent. Read a high bioavailability as good availability. One may read the clearance as the rate of elimination divided by the concentration. A high value points to a high capacity for elimination. In data set [1], `Nc1n[nH]c2ccc(-c3ccnc4[nH]c(-c5ccnc(OCc6ccccc6)c5)cc34)cc12` [Compound 6g [SU1349]] gave a pIC50 of 6.82. Further, in the data set “In vivo murine PK” (ip, I.P.), the Cmax was determined as 199 ng/mL, the Tmax was found to be 26.4 min, the bioavailability was 9.3% and the half-life was 181 min. Besides, in the data set “In vivo murine PK” (iv, I.V.), the clearance turned out to be 16.7 mL/min/kg and the half-life was 251 min. In addition, the Vd in “In vivo murine PK” (iv, I.V., read-out: Vss) is 0.39 L/kg.

These data come from paper PMC11314561, “Design and Synthesis of Novel Aminoindazole-pyrrolo[2,3-b]pyridine Inhibitors of IKKα That Selectively Perturb Cellular Non-Canonical NF-κB Signalling” (Molecules, 2024).
